In US20040082665A1, “Method for treating stress or tension” (priority 2001, published 2004):

How the values were obtained:
patients [1] = test: Randomised placebo-controlled double-blind study; ability to tolerate stress by Visual Analogue Scale (VAS); type: in vivo; conditions: tablet
Method: The effects of deramciclane were studied in a randomised placebo-controlled double-blind study. The subjects were randomly assigned to four parallel groups to receive one tablet twice daily (b.i.d) of a placebo, 5 mg (=10 mg/day), 15 mg (=30 mg/day), or 30 mg (=60 mg/day) deramciclane.
The efficacy of deramciclane on the ability to tolerate stress was analysed by the Visual Analogue Scale (VAS).

patients [2] = test: Randomised placebo-controlled double-blind parallel group 8-week study of tension; type: in vivo; conditions: after 8 weeks of treatment; for patients with tension scale number at least 4: placebo 48% at baseline, 12% after 8 weeks; for patients with moderate/severe or very severe other tension: present in all patients at baseline, placebo 43%; for patients with moderate/severe or very severe muscular tension: placebo 82% at baseline, 38% after 8 weeks
From the text: The efficacy and safety of deramciclane was studied in the treatment of tension as compared to placebo. A randomised plasebo-controlled double-blind parallel group 8-week study design was used.
Patients were asked if they had muscular tension (twitchings, stiffness, myoclonic jerks, grinding of teeth, unsteady voice or increased muscular tone) or other tension (feelings of tension, fatigability, startle response, moving to tears easily, trembling, feelings of restlessness or inability to relax). This tension was related to be not present, mild, moderate, severe or very severe.
In addition, patients' tension was also rated with the tension scale 1-6:
2—occasional feelings of edginess and ill defined discomfort
4—continuous feelings of inner tension
6—unrelated dread or anguish

CN(C)CCO[C@]1(c2ccccc2)C[C@H]2CC[C@]1(C)C2(C)C [deramciclane, (1R,2S,4R)-(−)-2-phenyl 2-(dimethylaminoethoxy)-1,7,7-trimethyl-bicyclo[2.2.1]heptane]
ability to tolerate stress better than in patients receiving placebo (VAS) (patients [1]; deramciclane 5 mg b.i.d (=10 mg/day)): 29%
ability to tolerate stress better than in patients receiving placebo (VAS) (patients [1]; deramciclane 15 mg b.i.d (=30 mg/day)): 54%
ability to tolerate stress better than in patients receiving placebo (VAS) (patients [1]; deramciclane 30 mg b.i.d. (=60 mg/day)): 43%
patients with tension scale number at least 4 (patients [2]; 15 mg bid deramciclane, baseline 35%): 5%
patients with moderate/severe or very severe other tension (patients [2]; 15 mg bid deramciclane): 25%
patients with moderate/severe or very severe muscular tension (patients [2]; 15 mg deramciclane bid, baseline 61%): 18%
patients with tension scale number at least 4 (patients [2]; 30 mg bid deramciclane, baseline 47%): 11%
patients with moderate/severe or very severe other tension (patients [2]; 30 mg bid deramciclane): 24%
patients with moderate/severe or very severe muscular tension (patients [2]; baseline 68%): 15%
